Assay results reported in publication PMC9568670, “A dominant negative mitofusin causes mitochondrial perinuclear clusters because of aberrant tethering” (Life Science Alliance, 2022).
Changes are numbered by the printed parent chain. Structures can show the parent of a compound that is named as a salt.

Tests used:
Format in all cases: biochemical
[1] = biological target: T1, Mfn1^WT-FLAG (full-length) (Mus musculus, UniProt Q811U4); assay: blue native PAGE of isolated mitochondria, nucleotide-dependent oligomerization; details: 2 mM GMP-PNP, 37 C, 30 min; non-hydrolyzable GTP analog; indirect read-out by oligomer shift
T1 construct: full-length Mfn1 with FLAG tag, TET-induced in Flp-In TREx HEK293 cells; isolated mitochondria; ~200 kD species consistent with cis dimer
T1 sequence (Q811U4 1-741): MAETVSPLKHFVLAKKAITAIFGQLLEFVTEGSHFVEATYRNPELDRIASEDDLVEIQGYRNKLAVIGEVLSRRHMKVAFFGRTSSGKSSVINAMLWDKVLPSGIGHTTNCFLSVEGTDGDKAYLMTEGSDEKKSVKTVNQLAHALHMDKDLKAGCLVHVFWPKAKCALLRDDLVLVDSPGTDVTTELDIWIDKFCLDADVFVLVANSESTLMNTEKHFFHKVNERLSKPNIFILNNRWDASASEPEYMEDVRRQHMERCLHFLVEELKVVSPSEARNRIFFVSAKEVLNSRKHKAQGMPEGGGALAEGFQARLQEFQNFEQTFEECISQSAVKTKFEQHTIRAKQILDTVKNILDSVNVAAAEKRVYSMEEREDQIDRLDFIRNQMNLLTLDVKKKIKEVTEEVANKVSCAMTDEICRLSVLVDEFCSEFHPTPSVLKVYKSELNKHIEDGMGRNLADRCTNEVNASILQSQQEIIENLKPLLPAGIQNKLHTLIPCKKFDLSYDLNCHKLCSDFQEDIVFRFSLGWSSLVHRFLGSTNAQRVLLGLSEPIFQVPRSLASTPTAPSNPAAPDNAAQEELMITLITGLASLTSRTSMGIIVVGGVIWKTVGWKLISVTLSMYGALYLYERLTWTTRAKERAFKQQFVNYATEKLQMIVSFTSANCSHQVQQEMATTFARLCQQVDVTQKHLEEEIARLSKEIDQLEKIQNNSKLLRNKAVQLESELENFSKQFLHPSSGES

[2] = biological target: T2, Mfn1IM (mini-mitofusin Mfn1) (Homo sapiens, UniProt Q8IWA4, DEL366-695); assay: malachite green phosphate release, allosteric sigmoidal fit; details: 2.5 uM protein; pH 7.4, 50 mM KCl, 5 mM MgCl2, 1 mM DTT, 37 C, 15 min
T2 construct: pET28, E. coli Rosetta(DE3); N-terminal His6 cut off with PreScission; ~50 kD; monomer with GDP, dimer with GDP-BeF3-
T2 sequence (Q8IWA4 1-365): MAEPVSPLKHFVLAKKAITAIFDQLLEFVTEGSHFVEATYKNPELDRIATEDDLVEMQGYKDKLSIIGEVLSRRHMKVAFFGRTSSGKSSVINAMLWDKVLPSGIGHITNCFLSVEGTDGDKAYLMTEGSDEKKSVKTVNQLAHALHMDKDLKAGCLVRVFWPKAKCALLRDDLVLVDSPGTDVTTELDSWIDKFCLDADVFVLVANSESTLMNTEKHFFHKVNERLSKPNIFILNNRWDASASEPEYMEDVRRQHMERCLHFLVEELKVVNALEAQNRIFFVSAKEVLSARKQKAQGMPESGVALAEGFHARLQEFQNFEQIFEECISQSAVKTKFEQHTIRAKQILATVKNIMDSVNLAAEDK
T2 sequence (Q8IWA4 696-741): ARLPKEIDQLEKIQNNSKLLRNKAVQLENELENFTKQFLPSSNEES

[3] = biological target: T3, Mfn1IM (mini-mitofusin Mfn1) (Homo sapiens, UniProt Q8IWA4, S329P/DEL366-695); assay: as above; details: 2.5 uM protein; pH 7.4, 50 mM KCl, 5 mM MgCl2, 1 mM DTT, 37 C, 15 min
T3 construct: pET28, E. coli Rosetta(DE3); N-terminal His6 cut off with PreScission; ~50 kD; monomer with GDP, dimer with GDP-BeF3-
T3 sequence (Q8IWA4 1-365 S329P): T2 sequence (Q8IWA4 1-365) with S329P
T3 sequence (Q8IWA4 696-741): T2 sequence (Q8IWA4 696-741)

Nc1nc2c(ncn2[C@@H]2O[C@H](COP(=O)(O)OP(=O)(O)NP(=O)(O)O)[C@@H](O)[C@H]2O)c(=O)[nH]1 [GMP-PNP, guanosine 5′-β,γ-imidotriphosphate trisodium salt hydrate] was tested, and the “blue native PAGE of isolated mitochondria, nucleotide-dependent oligomerization” value [1] was “GMP-PNP, which shifts mitofusin from the dimer into two larger species”.
For Nc1nc2c(ncn2[C@@H]2O[C@H](COP(=O)(O)OP(=O)(O)OP(=O)(O)O)[C@@H](O)[C@H]2O)c(=O)[nH]1 [GTP], the Khalf [2] was “kinetics of GTP hydrolysis was similar between Mfn1IM^WT and Mfn1IM^S329P” and the Khalf [3] was “kinetics of GTP hydrolysis was similar between Mfn1IM^WT and Mfn1IM^S329P”.
